Consider 38 compounds from the SangsterLogP compilation.

One may read the logP as a log measure of how a compound divides between an organic and an aqueous phase.

In turn, `COc1c(Br)cc(Cl)cc1Br` returned a log partition coefficient (logP) of 4.33. As to `COc1c(Cl)ccc(Cl)c1Cl`, the log partition coefficient (logP) turned out to be 3.76. In turn, `COc1cc(Cl)c(Cl)cc1Cl` came in with a logP of 3.95.

`COc1cc(Cl)cc(Cl)c1Cl`: the log partition coefficient (logP) was 4.05.

Consider `COc1c(Cl)c(Cl)c(Br)c(Cl)c1Cl`, for which the logP came out at 5.26.

`COc1ccc(Cl)cc1Br`: the logP worked out at 3.59. In the case of `COc1cc(Cl)cc(Cl)c1Br`, the logP amounted to 4.39. To `COc1c(Cl)cc(Br)c(Cl)c1Cl` belongs 4.66; to `COc1c(Cl)cccc1Cl`, 3.19; to `COc1cc(Cl)ccc1Cl`, 3.27. To `COc1ccc(Br)cc1Cl` belongs 3.77; to `COc1c(Br)cc(Cl)c(Cl)c1Cl`, 4.64. For the compound `COc1cc(Cl)c(Br)c(Cl)c1`, the logP is 4.39. `COc1c(Br)ccc(Cl)c1Cl` came in with a logP of 4.47.

As to `COc1ccccc1Br`, the log partition coefficient (logP) stood at 2.87. For `COc1c(Br)cc(Br)c(Cl)c1Br`, the logP amounted to 5.29. To `COc1ccc(Br)cc1` belongs 3.15.

On to `COc1c(Br)cc(Br)c(Cl)c1Cl`, for which the logP worked out at 4.97.

Consider `COc1c(Cl)cc(Cl)cc1Br`, for which the log partition coefficient (logP) was found to be 4. To `COc1ccc(Br)cc1Br` belongs 3.75.

In turn, `COc1ccc(Cl)c(Cl)c1` had a log partition coefficient (logP) of 3.55. `COc1c(Cl)cccc1Br` gave a logP of 3.44. As for `COc1ccccc1Cl`, the figure is 2.72. As for `COc1cccc(Br)c1`, the figure is 3.23; as for `COc1c(Cl)c(Cl)cc(Br)c1Cl`, 4.66. The compound `COc1c(Cl)cc(Br)cc1Cl` yielded a logP of 4.02. On to `COc1ccc(Br)c(Cl)c1Cl`, for which the log partition coefficient (logP) worked out at 4.47. As for `COc1cccc(Cl)c1Cl`, the figure is 3.3; as for `COc1ccc(Cl)cc1Cl`, 3.46.

In the case of `COc1c(Cl)c(Cl)cc(Br)c1Br`, the log partition coefficient (logP) came out at 5.29. With `COc1c(Cl)c(Cl)c(Cl)c(Cl)c1Cl`, the lipophilicity (logP) was 5.16. The logP values of the last two compounds are within 0.2 log units of each other. Consider `COc1cc(Cl)c(Br)c(Cl)c1Br`, for which the logP was found to be 5.29.

`COc1c(Br)c(Cl)c(Cl)c(Cl)c1Br` gave a logP of 5.55. In turn, `COc1cc(Cl)c(Cl)c(Cl)c1Br` yielded a log partition coefficient (logP) of 4.97. As for `COc1cc(Br)c(Cl)cc1Cl`, the figure is 4.47. To `COc1cc(Cl)c(Cl)c(Cl)c1Cl` belongs 4.57; to `COc1c(Br)c(Br)c(Br)c(Br)c1Br`, 5.43. With `COc1c(Br)cccc1Br`, the lipophilicity (logP) came out at 3.42.
